Legend:
[1] = tested on: subjects with advanced hematologic malignancies undergoing myeloablative allogeneic hematopoietic cell transplantation; details: in vivo
From the text: Acute GVHD was staged and graded per MAGIC Standardization criteria.
Acute GVHD was staged and graded per Mount Sinai Acute GvHD International Consortium (MAGIC) Standardization criteria.

[2] = tested on: subjects with advanced hematologic malignancies undergoing myeloablative allogeneic hematopoietic cell transplantation; test: Disease relapse / relapse-free survival / disease status after therapy; assay type: in vivo, human; details: Example 3, tacrolimus-only relative to sirolimus-only patients
From the text: Incidence of disease relapse: For acute leukemias, relapse was defined as any of the following (MRD^+ alone was insufficient): (i) ≥5% blasts in the bone marrow or peripheral blood; or (ii) Reappearance of pre-transplant cytogenetic abnormality; or (iii) new evidence or redevelopment of extramedullary disease. For MDS, relapse was defined as any of the following: (i) satisfying criteria for evolution into acute leukemia; (ii) reappearance of pre-transplant morphologic abnormalities, detected in bone marrow specimens; or, (iii) reappearance of pre-transplant cytogenetic abnormality in at least one metaphase on each of two separate consecutive examinations at least one month apart, regardless of the number of metaphases analyzed.
Subjects in the study were first evaluated for relapse on day ^+90 post-transplant.

[3] = tested on: subjects with advanced hematologic malignancies undergoing myeloablative allogeneic hematopoietic cell transplantation; test: GVHD and relapse-free survival (GRFS); assay type: in vivo, human; details: Example 3, tacrolimus-only relative to sirolimus-only patients
From the text: GVHD and relapse-free survival is a composite readout that can refer to survival without relapse or Grade ≥3 acute or extensive chronic GVHD. At the time of reporting, the percent of GVHD-free and relapse-free survival to one-year post-transplant was 74% for the study group, compared to 34% for the SOC cohort, as shown in FIG. 4F. The difference was statistically significant (p=0.0001 by log-rank test).

[4] = tested on: subjects with advanced hematologic malignancies undergoing myeloablative allogeneic hematopoietic cell transplantation; test: Chronic GVHD, per NIH consensus criteria; assay type: in vivo, human; details: Example 3, serum tacrolimus trough level higher vs lower than 4 ng/ml
Description: Chronic GVHD was diagnosed, staged, and graded per the International NIH Chronic GVHD Diagnosis and Staging Consensus Working Group criteria.
Chronic GVHD: As chronic GVHD (cGVHD) is associated with significant morbidity and with decreased survival, reducing the severity or incidence of cGVHD has the potential to greatly benefit graft recipients. Chronic GVHD was diagnosed per 2014 International NIH Chronic GVHD Diagnosis and Staging Consensus Working Group criteria.
Analysis was conducted using a cutoff of 365 days (i.e., cGVHD events that occur after Day ^+365 were not included). […] Additionally, several subjects in the study group have undergone greater than 2.5 years of follow-up with no cGVHD symptoms reported.

[5] = tested on: subjects with advanced hematologic malignancies undergoing myeloablative allogeneic hematopoietic cell transplantation; test: Overall survival; assay type: in vivo, human; details: Example 3, tacrolimus-only relative to sirolimus-only patients
From the text: Overall survival: OS was defined as the time from the date of transplant to the date of death from any cause or, for surviving patients, to the date of last follow-up. […] The difference was statistically significant (p=0.0242 by log-rank test).

[6] = tested on: Patients with hematologic malignancies; test: Relapse, non-relapse mortality, relapse-free survival, GRFS and overall survival after transplant; assay type: in vivo, human; details: with Orca-T; relapse-free survival through 1 year; FIG. 14
From the text: FIGS. 1A-B illustrate the schematics of the transplant according to the methods described herein (identified as High-Precision Orca-T or Orca-T) and the differences compared to a standard of care (SOC) cohort (identified as Conventional Transplant or SOC).

In the case of `C=CC[C@@H]1/C=C(\C)C[C@H](C)C[C@H](OC)[C@H]2O[C@@](O)(C(=O)C(=O)N3CCCC[C@H]3C(=O)O[C@H](/C(C)=C/[C@@H]3CC[C@@H](O)[C@H](OC)C3)[C@H](C)[C@@H](O)CC1=O)[C@H](C)C[C@@H]2OC` [tacrolimus], the GVHD rates [1] is reported as “higher”, the relapse rates [2] is reported as “improved” and the GRFS rates [3] is reported as “improved”. The “chronic GVHD rates” value [4] was “improvements”, the overall survival rates [5] was “improved” and the “survival (FIG. 7E)” value [5] was “improved”.

With `S=P(N1CC1)(N1CC1)N1CC1` [thiotepa] the “effect of addition of thiotepa to busulfan-based conditioning regimens on relapse and non-relapse mortality” value [6] was “decreases relapse without increasing non-relapse mortality”.
